From US20260015325A1, “ALKOXY HETEROARYL- CARBOXAMIDE OR THIOAMIDE COMPOUNDS” (SYNGENTA CROP PROTECTION AG, priority 2022, published 2026) come the findings set out here.

Molecules are shown by their SMILES.

Type in all cases: in vivo
The subject of assay [1] is Myzus persicae (Green Peach Aphid). Description: Myzus persicae (Green Peach Aphid): feeding/contact activity, sunflower leaf discs. The settings on record: foliar, 144 h, application rate of 200 ppm, mixed ages on sprayed sunflower leaf discs, 6 days after infestation, read-out: mortality. The procedure: Example B6: Myzus persicae (Green Peach Aphid): Feeding/Contact Activity
Sunflower leaf discs were placed onto agar in a 24-well microtiter plate and sprayed with aqueous test solutions prepared from 10′000 ppm DMSO stock solutions. After drying, the leaf discs were infested with an aphid population of mixed ages. The samples were assessed for mortality 6 days after infestation.

Assay [2] has the same test system. Description: Myzus persicae (Green Peach Aphid): intrinsic activity, sucrose solution. The settings on record: 120 h, test rate of 12 ppm, intrinsic, mixed with sucrose solution under Parafilm, 5 days after infestation, read-out: mortality. The text has this: Example B8: Myzus persicae (Green Peach Aphid). Intrinsic Activity
Test compounds prepared from 10′000 ppm DMSO stock solutions were applied by pipette into 24-well microtiter plates and mixed with sucrose solution. The plates were closed with a stretched Parafilm. A plastic stencil with 24 holes was placed onto the plate and infested pea seedlings were placed directly on the Parafilm. The infested plate was closed with a gel blotting paper and another plastic stencil and then turned upside down. The samples were assessed for mortality 5 days after infestation.

Assay [3] concerns Tetranychus urticae (Two-Spotted Spider Mite). Description: whole plant or invertebrate. The settings on record: foliar, 192 h, application rate of 200 ppm, mixed population (mobile stages) on sprayed bean leaf discs, 8 days after infestation, read-out: mortality. On the procedure: Example B11: Tetranychus urticae (Two-Spotted Spider Mite): Feeding/Contact Activity
Bean leaf discs on agar in 24-well microtiter plates were sprayed with aqueous test solutions prepared from 10′000 ppm DMSO stock solutions. After drying the leaf discs were infested with a mite population of mixed ages. The samples were assessed for mortality on mixed population (mobile stages) 8 days after infestation.

Assay [4] relates to Myzus persicae (Green Peach Aphid). Description: Myzus persicae (Green Peach Aphid): systemic activity, pea seedlings. To be noted: 144 h, test rate of 24 ppm, systemic, roots of infested pea seedlings in test solution, 6 days, read-out: mortality. On the procedure: Example B7: Myzus persicae (Green Peach Aphid). Systemic Activity
Roots of pea seedlings infested with an aphid population of mixed ages were placed directly into aqueous test solutions prepared from 10′000 DMSO stock solutions. The samples were assessed for mortality 6 days after placing seedlings into test solutions.

In assay [5] the test system is Bemisia tabaci (Cotton White Fly). Description: Bemisia tabaci (Cotton White Fly): feeding/contact activity, cotton leaf discs. The settings on record: foliar, 144 h, application rate of 200 ppm, adult white flies on sprayed cotton leaf discs, 6 days after incubation, read-out: mortality. The procedure:
Example B1: Bemisia tabaci (Cotton White Fly): Feeding/Contact Activity
Cotton leaf discs were placed on agar in 24-well microtiter plates and sprayed with aqueous test solutions prepared from 10′000 ppm DMSO stock solutions. After drying the leaf discs were infested with adult white flies. The samples were checked for mortality 6 days after incubation.

The term mortality denotes the percentage killed. Turning to `C[C@@H](COc1cnc(Cl)c(C(=O)NC2CC2)c1)NS(=O)(=O)C(Cl)Cl` [Compound P-4, 2-chloro-N-cyclopropyl-5-[(2S)-2-(dichloromethylsulfonylamino)propoxy]pyridine-3-carboxamide], the mortality at 200 ppm in assay [1] and in assay [3] was at least 80% in each case. Moreover, the mortality at 12 ppm in assay [2] was at least 80%.
Take `C[C@@H](COc1cnc(Cl)c(C(=O)NC2CC2)c1)NS(=O)(=O)C(F)F` [Compound P-10, 2-chloro-N-cyclopropyl-5-[(2S)-2-(difluoromethylsulfonylamino)propoxy]pyridine-3-carboxamide]: the mortality at 24 ppm in assay [4] is at least 80%. In assay [2], the mortality at 12 ppm was at least 80%. In addition, in assay [3], the mortality at 200 ppm is at least 80%.
Take `C[C@@H](COc1cnc(Cl)c(C(=O)NC(C)(C)C)c1)NS(=O)(=O)C(F)(F)F` [Compound P-11, N-tert-butyl-2-chloro-5-[(2S)-2-(trifluoromethylsulfonylamino)propoxy]pyridine-3-carboxamide]: the mortality at 200 ppm in assay [1] and in assay [3] was at least 80% throughout. Further, in assay [2], the mortality at 12 ppm was at least 80%.
With `O=C(NC1CC1)c1cc(OCCNS(=O)(=O)C(F)(F)F)cnc1Cl` [Compound P-17, 2-chloro-N-cyclopropyl-5-[2-(trifluoromethylsulfonylamino)ethoxy]pyridine-3-carboxamide], the mortality at 200 ppm in assay [5] and in assay [1] was at least 80% each time. Further, in assay [2], the mortality at 12 ppm was at least 80%.
Regarding `C[C@@H](COc1cnc(Cl)c(C(=O)Nc2ncc(Cl)cc2F)c1)NS(=O)(=O)C(F)(F)F` [Compound P-19, 2-chloro-N-(5-chloro-3-fluoro-2-pyridyl)-5-[(2S)-2-(trifluoromethylsulfonylamino)propoxy]pyridine-3-carboxamide], the mortality at 12 ppm in assay [2] was at least 80%.
For the molecule `Cc1cc(Cl)cnc1NC(=O)c1cc(OC[C@H](C)NS(=O)(=O)C(F)(F)F)cnc1Cl` [Compound P-20, 2-chloro-N-(5-chloro-3-methyl-2-pyridyl)-5-[(2S)-2-(trifluoromethylsulfonylamino)propoxy]pyridine-3-carboxamide], the mortality at 200 ppm in assay [5] and in assay [3] was at least 80% each time. In assay [2], the mortality at 12 ppm was at least 80%.
`Cc1ncc(OC[C@H](C)NS(=O)(=O)C(F)(F)F)cc1C(=O)NC12CC(C1)C2` [Compound P-26, N-(1-bicyclo[1.1.1]pentanyl)-2-methyl-5-[(2S)-2-(trifluoromethylsulfonylamino)propoxy]pyridine-3-carboxamide]: the mortality at 200 ppm in assay [1] and in assay [3] was at least 80% each time. Besides, in assay [4], the mortality at 24 ppm is at least 80%. In assay [2], the mortality at 12 ppm is at least 80%.
Regarding `Cc1ncc(OC[C@H](C)NS(=O)(=O)C(F)(F)F)cc1C(=O)NCc1ccc(Cl)cn1` [Compound P-28, N-[(5-chloro-2-pyridyl)methyl]-2-methyl-5-[(2S)-2-(trifluoromethylsulfonylamino)propoxy]pyridine-3-carboxamide], the mortality at 200 ppm in assay [5] is at least 80%. Moreover, the mortality at 24 ppm in assay [4] was at least 80%.
As to `Cc1ncc(OC[C@H](C)NS(=O)(=O)C(F)(F)F)cc1C(=O)NC(C)C1CC1` (stereo partly drawn) [Compound P-31, N-(1-cyclopropylethyl)-2-methyl-5-[(2S)-2-(trifluoromethylsulfonylamino)propoxy]pyridine-3-carboxamide], the mortality at 200 ppm in assay [5] and in assay [3] was at least 80% each time.
`CC(NC(=O)c1cc(OC[C@H](C)NS(=O)(=O)C(F)(F)F)cnc1Cl)C1CC1` (stereo partly drawn) [Compound P-45, 2-chloro-N-(1-cyclopropylethyl)-5-[(2S)-2-(trifluoromethylsulfonylamino)propoxy]pyridine-3-carboxamide]: the mortality at 200 ppm in assay [1] and in assay [3] was at least 80% each time. Besides, the mortality at 12 ppm in assay [2] is at least 80%.
For `C[C@@H](COc1cnc(Cl)c(C(=O)NCC2(C#N)CC2)c1)NS(=O)(=O)C(F)(F)F` [Compound P-46, 2-chloro-N-[(1-cyanocyclopropyl)methyl]-5-[(2S)-2-(trifluoromethylsulfonylamino)propoxy]pyridine-3-carboxamide], the mortality at 200 ppm in assay [5] and in assay [1] was at least 80% each time.
On to `C#CCNC(=O)c1cc(OC[C@H](C)NS(=O)(=O)C(F)(F)F)cnc1Cl` [Compound P-52, 2-chloro-N-prop-2-ynyl-5-[(2S)-2-(trifluoromethylsulfonylamino)propoxy]pyridine-3-carboxamide], for which the mortality at 200 ppm in assay [5], in assay [1] and in assay [3] was at least 80% in each case.
With `C[C@@H](COc1cnc(Cl)c(C(=O)NC2CON(CC(F)(F)F)C2=O)c1)NS(=O)(=O)C(F)(F)F` (stereo partly drawn) [Compound P-54, 2-chloro-N-[3-oxo-2-(2,2,2-trifluoroethyl)isoxazolidin-4-yl]-5-[(2S)-2-(trifluoromethylsulfonylamino)propoxy]pyridine-3-carboxamide], the mortality at 200 ppm in assay [5] and in assay [1] was at least 80% throughout. The mortality at 24 ppm in assay [4] is at least 80%. Also, in assay [2], the mortality at 12 ppm was at least 80%.
For the molecule `C[C@@H](COc1cnc(Cl)c(C(=O)NCC(F)F)c1)NS(=O)(=O)C(F)(F)F` [Compound P-55, 2-chloro-N-(2,2-difluoroethyl)-5-[(2S)-2-(trifluoromethylsulfonylamino)propoxy]pyridine-3-carboxamide], in assay [1], the mortality at 200 ppm was at least 80%. For the same molecule, the mortality at 12 ppm in assay [2] is at least 80%.
For the molecule `C[C@@H](COc1cnc(Cl)c(C(=O)Nc2ccccc2)c1)NS(=O)(=O)C(F)(F)F` [Compound P-56, 2-chloro-N-phenyl-5-[(2S)-2-(trifluoromethylsulfonylamino)propoxy]pyridine-3-carboxamide], the mortality at 200 ppm in assay [5] and in assay [3] was at least 80% in each case.
On to `Cc1cnc(OC[C@H](C)NS(=O)(=O)C(F)(F)F)cc1C(=O)NC1CCN(CC(F)(F)F)C1=O` (stereo partly drawn) [Compound P-70, 5-methyl-N-[2-oxo-1-(2,2,2-trifluoroethyl)pyrrolidin-3-yl]-2-[(2S)-2-(trifluoromethylsulfonylamino)propoxy]pyridine-4-carboxamide], for which the mortality at 200 ppm in assay [5] and in assay [1] was at least 80% each time.
In the case of `CCN1OC[C@@H](NC(=O)c2cc(OC[C@H](C)N(COC)S(=O)(=O)C(F)(F)F)ncc2C)C1=O` [Compound P-78, N-[(4R)-2-ethyl-3-oxo-isoxazolidin-4-yl]-2-[(2S)-2-[methoxymethyl(trifluoromethylsulfonyl)amino]propoxy]-5-methyl-pyridine-4-carboxamide], the mortality at 200 ppm in assay [1] and in assay [3] was at least 80% in each case.
Take `COCN([C@@H](C)COc1cc(C(=O)NC2CC2)c(Br)cn1)S(=O)(=O)C(F)(F)F` [Compound P-81, 5-bromo-N-cyclopropyl-2-[(2S)-2-[methoxymethyl(trifluoromethylsulfonyl)amino]propoxy]pyridine-4-carboxamide]: the mortality at 12 ppm in assay [2] was at least 80%.
As for `COCN([C@@H](C)COc1cc(C(=O)NC2(C#N)CC2)c(Br)cn1)S(=O)(=O)C(F)(F)F` [Compound P-82, 5-bromo-N-(1-cyanocyclopropyl)-2-[(2S)-2-[methoxymethyl(trifluoromethylsulfonyl)amino]propoxy]pyridine-4-carboxamide], the mortality at 200 ppm in assay [5] and in assay [3] was at least 80% each time.
As to `C[C@@H](COc1cc(C(=O)NC2CC2)c(Br)cn1)NS(=O)(=O)C(F)(F)F` [Compound P-83, 5-bromo-N-cyclopropyl-2-[(2S)-2-(trifluoromethylsulfonylamino)propoxy]pyridine-4-carboxamide], in assay [1], the mortality at 200 ppm was at least 80%. Moreover, the mortality at 24 ppm in assay [4] is at least 80%. Also, the mortality at 12 ppm in assay [2] was at least 80%.
As for `C[C@@H](COc1cc(C(=O)NC2(C#N)CC2)c(Br)cn1)NS(=O)(=O)C(F)(F)F` [Compound P-86, 5-bromo-N-(1-cyanocyclopropyl)-2-[(2S)-2-(trifluoromethylsulfonylamino)propoxy]pyridine-4-carboxamide], the mortality at 200 ppm in assay [5] is at least 80%.
On to `C[C@@H](COc1cc(C(=O)NC2CC2)c(Cl)cn1)NS(=O)(=O)C(F)(F)F` [Compound P-87, 5-chloro-N-cyclopropyl-2-[(2S)-2-(trifluoromethylsulfonylamino)propoxy]pyridine-4-carboxamide], for which the mortality at 200 ppm in assay [1] and in assay [3] was at least 80% each time. The mortality at 12 ppm in assay [2] was at least 80%.
